The test system of assay [1] is Male Harlan Sprague-Dawley rats. Kind of assay: Animal model of dural plasma protein extravasation (PPE). The conditions noted are these: 10 mg/kg, 2 hours post po dose, rat; saline controls approximately 2.0, full prevention approximately 1.0. The class given is in vivo.
The subject of assay [2] is male Lewis rats. Kind of assay: Monoiodoacetate (MIA) model, incapacitance testing. The conditions noted are these: dosed once, rat MIA model. The class given is in vivo. The protocol:
Monoiodoacetate (MIA) Model
For all studies male Lewis rats of approximately 8 weeks of age at the time of MIA injection are used to measure pain in the MIA model. The rats are housed in groups of 2 or 3 per cage and maintained in a constant temperature and on a 12 hour light/12 hour dark cycle. Animals have free access to food and water at all times except during data collection.
In the standard MIA model the right knees of each rat are injected with 0.3 mg MIA in 50 ul of saline and the left knees with 50 ul of saline. Pain is measured at varying times after MIA injection (not normally before 10 day post MIA injection) using incapacitance testing. This measures the difference in hind paw weight bearing between the MIA and saline injected knees, and each measurement is the average of 3 separate measurements each measured over 1 second.
For studies with CB2 agonists rats are randomized into dose groups (n=5 or 6) and then dosed once with the compound under investigation. Dosing is staggered by 15 minutes for each rat and at a predetermined time post-dose (usually 2 hours), pain measured using incapacitance testing. Studies are routinely run with 4 groups, vehicle (1% carboxy methyl cellulose in water plus 0.25% polysorbate 80) and 3 compound groups which can be either single compounds at a single dose or the same compound at 3 doses. Results are reported as the difference in weight bearing between saline and MIA injected knees and statistical comparisons are made between vehicle treated and compound treated animals to assess the effect of compounds on knee pain in the model.

Assay [3] has as its target T1, hCB1-CHO membranes (Homo sapiens, UniProt P21554).
T1 construct: expressed in transfected cells; host or cells: CHO cells
Kind of assay: CB1 in vitro functional assay, SPA based GTP-γ-35S binding, agonist mode (whole membrane capture). Format: biochemical. The conditions noted are these: normalized to methanandamide, read-out: relative EC50 value for CB1. The protocol:
(§1) CB1 and CB2 In Vitro Functional Assays
(§2) Exemplified compounds are tested in agonist mode using a SPA based GTP-γ-^35S binding assay. All assay components are prepared in assay buffer made up of 20 mM HEPES, 100 mM NaCl, 5 mM MgCl2, (pH 7.4 at room temperature). Semi-log compound dilutions are done in assay buffer containing BSA (final 0.125%). GTP-γ^35-S binding is measured in a 96 well format using a whole membrane capture technique for the CB1 assay and modifications of an antibody capture technique previously described (DeLapp et al. J Pharmacol Exp Ther 289:946-955, 1999) for the CB2 assay. All incubations are done at room temperature.
hCB1-CHO membranes, GDP (1 uM final), and saponin (10 ug/mL final) are added to assay buffer and homogenized. Diluted compounds, GTP-γ-^35S (500 nM final) and membranes are added to the assay plate and incubated for 30 minutes. Then 1 mg/well Wheatgerm Agglutinin SPA bead is added, and the plates are sealed, vortexed, and incubated for an additional hour. Plates are then centrifuged at 700×g for 10 minutes and counted for 1 minute per well using a scintillation counter.
To analyze data, first subtract background from all wells. Determine percent agonist efficacy by normalizing agonist/inverse agonist dose response data to a full agonist (methanandamide) response. Analyze the data using a 4-parameter logistic reduced fit with Activity Base and XLFit3.

The target in assay [4] is T2, human CB2 receptor (Homo sapiens, UniProt P34972).
T2 construct: expressed in transfected cells
Kind of assay: Displacement of 3H-CP55940 from human CB2 receptors. The class given is binding. The conditions noted are these: displacement of 3H-CP55940, human CB2 membrane homogenates. The protocol:
(§3) Displacement of 3H-CP55940 from Human and Rat CB2 Receptors
(§4) The methods of Felder et al. (Mol. Pharmaocol. 48:443-450, 1995) were utilized with minor modifications. Specifically, membrane homogenates from cells stably or transiently expressing the human or rat CB2 receptor were washed by centrifugation and diluted into a 50 mM Tris HCl (pH 7.4), 5 mM MgCl2, 2.5 mM EDTA, and 0.1% BSA buffer. Specific binding of 3H-CP55940 was defined with 1 μM CP55940. The ability of compounds to displace specific 3H-CP55940 binding was tested over a range of concentrations in the Tris, MgCl2, EDTA, BSA buffer in the presence of 1% dimethyl sulfoxide by incubating at room temperature for 90 minutes in a volume of 300 μl. Unifilter 96-well microplates pretreated with 0.5% polyvinylpyrrolidone, 0.1% polysorbate 20 in water were washed three times with cold Tris buffer. The reaction mixture was then transferred to the filter plate immediately before terminating the incubation by rapid filtration and three 200 μl washes with cold Tris buffer. After the filter plates dried, microscint 20 was added to each well, the plate sealed and counted for determination of disintegrations per minute. The displacement curves were graphed and the resulting Ki values determined utilizing Graphpad Prism.
A general note: Loss of bound radioactivity is the signal in a displacement assay; it reports binding, not function.

Assay [5] addresses T3, hCB2-Sf9 membranes (Homo sapiens, UniProt P34972).
T3 construct: expressed in transfected cells; host or cells: Sf9 insect cells
The experiment in a line: CB2 in vitro functional assay, SPA based GTP-γ-35S binding, agonist mode (antibody capture). Format: biochemical. The conditions noted are these: normalized to methanandamide, read-out: relative EC50 value for CB2. The protocol:
as §1, §2
hCB2-Sf9 membranes and GDP (1 uM final) are added to assay buffer and homogenized. Diluted compounds and membranes are added to the assay plate and pre-incubated for 15 minutes. This is followed by addition of GTP-γ-^35S ([…] final) and another 35 minute incubation. Next a mixture containing Nonidet P40 detergent (0.2% final), anti-Gi antibody (final dilution of 1:362), and 1.25 mg anti-rabbit antibody scintillation proximity assay beads are added. The plates are then sealed, vortexed, and incubated for an additional 2 hours before centrifuging and counting as for CB1.
To analyze data, first subtract background from all wells. […]
For orientation: Binding of GTPγS marks nucleotide exchange on a G protein.

The target in assay [6] is T4, rat CB2 receptor (Rattus norvegicus, UniProt Q9QZN9).
T4 construct: expressed in transfected cells
T4 sequence (Q9QZN9 1-360): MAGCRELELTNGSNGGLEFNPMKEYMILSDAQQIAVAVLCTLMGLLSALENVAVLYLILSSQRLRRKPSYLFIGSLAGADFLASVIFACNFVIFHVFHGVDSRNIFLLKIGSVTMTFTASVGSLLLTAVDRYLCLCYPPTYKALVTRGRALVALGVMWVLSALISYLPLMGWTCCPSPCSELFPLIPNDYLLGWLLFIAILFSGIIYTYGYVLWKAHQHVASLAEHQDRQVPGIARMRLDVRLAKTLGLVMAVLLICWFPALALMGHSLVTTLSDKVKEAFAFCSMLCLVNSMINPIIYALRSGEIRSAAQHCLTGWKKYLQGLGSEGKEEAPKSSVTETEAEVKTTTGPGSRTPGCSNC
Kind of assay: Displacement of 3H-CP55940 from rat CB2 receptors. Format: binding. Particulars: displacement of 3H-CP55940, rat CB2 membrane homogenates. The method, then:
as §3, §4

Molecules are shown by their SMILES. pEC50, pKi: −log10 of the molar value. Counter-ions that a name gives are not always drawn.

T3 sequence (P34972 whole entry): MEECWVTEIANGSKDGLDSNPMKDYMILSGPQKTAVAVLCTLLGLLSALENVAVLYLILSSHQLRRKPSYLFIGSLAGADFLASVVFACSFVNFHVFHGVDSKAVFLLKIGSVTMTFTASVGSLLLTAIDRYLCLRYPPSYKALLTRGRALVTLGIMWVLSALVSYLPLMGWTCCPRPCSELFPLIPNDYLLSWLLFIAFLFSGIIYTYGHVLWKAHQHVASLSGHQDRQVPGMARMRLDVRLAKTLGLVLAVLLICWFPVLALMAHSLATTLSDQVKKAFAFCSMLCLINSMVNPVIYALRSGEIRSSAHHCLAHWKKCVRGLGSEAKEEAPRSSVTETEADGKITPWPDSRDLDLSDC
T2 sequence (P34972 whole entry): as above
T1 sequence (P21554 whole entry): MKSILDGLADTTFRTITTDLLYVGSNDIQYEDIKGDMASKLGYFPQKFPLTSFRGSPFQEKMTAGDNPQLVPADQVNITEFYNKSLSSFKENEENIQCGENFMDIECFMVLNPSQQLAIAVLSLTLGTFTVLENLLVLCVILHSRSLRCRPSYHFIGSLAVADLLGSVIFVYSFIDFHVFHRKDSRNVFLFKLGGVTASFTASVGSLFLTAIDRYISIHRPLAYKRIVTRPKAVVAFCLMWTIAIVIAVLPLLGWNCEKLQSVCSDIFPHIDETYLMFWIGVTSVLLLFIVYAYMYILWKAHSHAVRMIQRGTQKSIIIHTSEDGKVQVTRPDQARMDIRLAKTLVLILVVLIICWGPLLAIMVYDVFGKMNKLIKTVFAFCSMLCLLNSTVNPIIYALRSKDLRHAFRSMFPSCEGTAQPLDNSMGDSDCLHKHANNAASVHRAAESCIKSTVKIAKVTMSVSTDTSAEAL

In the case of `Cc1nc(N2CCN(C)CC2)c2nc(-c3ccccc3Cl)n(CCS(C)(=O)=O)c2n1.Cl` [Example 1, 8-(2-Chlorophenyl)-6-(4-methylpiperazin-1-yl)-2-methyl-9-(2-methylsulfonylethyl)purine hydrochloride], the “extravasation ratio (stimulated side over unstimulated side of dura)” value in assay [1] is 1.12. Further, the “pain versus vehicle (difference in hind paw weight bearing)” value in assay [2] (dose 0.3 mg/kg) and in assay [2] (dose 1 mg/kg) was “reduce pain versus vehicle” in each case.
The pEC50 is −log10 of the EC50, conventionally taken in molar units. In general, pKi refers to −log10 of the Ki, conventionally taken in molar units. For `CCN1CCN(c2nc(C)nc3c2nc(-c2ccccc2Cl)n3CCS(C)(=O)=O)CC1` [Example 2, 8-(2-Chlorophenyl)-6-(4-ethylpiperazin-1-yl)-2-methyl-9-(2-methylsulfonylethyl)purine hydrochloride], the pEC50 was 5.25 in assay [3] and 7.76 in assay [5]. Besides, the pKi in assay [4] was 7.55; in assay [6] it was 7.31.
With `Cc1nc(N2CCN(C)CC2)c2nc(-c3ccccc3Cl)n(CC#N)c2n1` [Example 3, 2-[8-(2-Chlorophenyl)-2-methyl-6-(4-methylpiperazin-1-yl)purin-9-yl]acetonitrile hydrochloride], the figures for the pKi in assay [4] and in assay [6] were 7.56 and 7.90, respectively.
In the case of `CCN1CCN(c2nc(C)nc3c2nc(-c2ccccc2Cl)n3CCNC(C)=O)CC1.Cl` [Example 7, N-[2-[8-(2-Chlorophenyl)-6-(4-ethylpiperazin-1-yl)-2-methyl-purin-9-yl]ethyl]acetamide hydrochloride], the “extravasation ratio (stimulated side over unstimulated side of dura)” value in assay [1] came to 1.18.
For `COC(=O)NCCn1c(-c2ccccc2Cl)nc2c(N3CCN(CCF)CC3)nc(C)nc21` [Example 16, Methyl N-[2-[8-(2-chlorophenyl)-6-[4-(2-fluoroethyl)piperazin-1-yl]-2-methyl-purin-9-yl]ethyl]carbamate hydrochloride], the figures for the pEC50 in assay [3] and in assay [5] were < 4.00 and 7.87, respectively.
In the case of `CC(=O)NCCn1c(-c2ccccc2Cl)nc2c(N3CCN(CCF)CC3)nc(C)nc21.Cl` [Example 17, N-[2-[8-(2-chlorophenyl)-6-[4-(2-fluoroethyl)piperazin-1-yl]-2-methyl-purin-9-yl]ethyl]acetamide hydrochloride], the “pain versus vehicle (difference in hind paw weight bearing)” value in assay [2] (dose 0.1 mg/kg), in assay [2] (dose 0.3 mg/kg) and in assay [2] (dose 1 mg/kg) was “reduce pain versus vehicle” throughout.

Values taken from patent US8710063B2, “Purine compounds used as CB2 agonists” (priority 2010, dated 2014).
